Assay [1] has as its system cAMP-dependent protein kinase (PKA). Description: cAMP-dependent protein kinase (PKA) activity in digitonin-permeabilized Jurkat cells. Conditions: 5× rat C18 purified Reptimed or 1 μm isoproterenol, basal activity 9 +/−1. The assay is classed as cell-based. The protocol: Cyclic AMP-dependent protein kinase (PKA) activity was assayed in digitonin-permeabilized cells. Jurkat cells were centrifuged at 300×g for 15 min and resuspended in Hanks' balanced salt solution without calcium and with 0.5 mM EDTA, 1 mM magnesium sulfate, and 1 mg/100 ml digitonin. Jurkat cells were incubated for 15 min at 4° C. and then washed twice as above in Hanks' solution without digitonin and finally resuspended at a final concentration of 10 to 20×10^6 cells/ml for assay. Cells were either untreated, treated with 5×rat C18 purified […], or with 1 μm isoproterenol, or with both 5[…] and 1 μm isoproterenol. PKA activity was assessed by the phosphorylation of the synthetic PKA substrate (Kemptide-Sigma Chemical Corporation, St. Louis, Mo.). Phosphorylated substrate was separated by adherence to phosphocellulose. After six washes in phosphoric acid, radioactivity on the phosphocellulose strips was assessed by scintillation spectroscopy.

For assay [2], the system named is Na—K—Cl cotransport. Description: Na—K—Cl cotransport measured by 86Rb uptake in Jurkat cells. Conditions: 1 μm isoproterenol, p<0.001. The assay is classed as cell-based. The method, then: Jurkat cells were centrifuged for 15 min at 300×g and resuspended in Dulbecco's modified Eagle's medium (DMEM; ionic composition: 1.8 mM CaCl2, 5.4 mM KCl, 0.8 mM MgSO4, 110 mM NaCl, 0.9 mM NaH2PO4, 0.25 µM Fe(NO3)3; GIBCO, Grand Island, N.Y.) with 10 mM N-2 hydroxyethylpiperazine-N′-2 ethanesulfonic acid (HEPES), pH 7.4 at a final concentration of 5-10×10^6 cells/ml. […] Assays were stopped by aliquoting 100 μl of the reaction mixture into chilled microcentrifuge tubes prefilled with 100 μl of 3 mM BaCl2 and 0.1 mM of ouabain solution layered over 100 μl of a 3:1 of mazola oil to n-butylphthalate mixture. Cells were rapidly sedimented through the oil interface (1 min at 15,000 g). Centrifuge tube tips containing the tip pellets were clipped in the vials and radioactivity was determined by scintillation spectroscopy (Beckman LS 6000).

Turning to `CC(C)NCC(O)c1ccc(O)c(O)c1` (centres unmarked) [isoproterenol], the PKA activity result in assay [1] is “significant increase”. The “Na—K—Cl cotransport (86Rb uptake)” value in assay [2] is reported as 38 +/−8 % of control.

The record behind these values is patent US20010022976A1, “Immunosuppressive and tumour-suppressive bone marrow factor” (London Health Sciences Centre, priority 1995, published 2001).
